This test concerns the target T1, LOXL2 (Homo sapiens, UniProt Q9Y4K0).
T1 sequence (Q9Y4K0 26-774): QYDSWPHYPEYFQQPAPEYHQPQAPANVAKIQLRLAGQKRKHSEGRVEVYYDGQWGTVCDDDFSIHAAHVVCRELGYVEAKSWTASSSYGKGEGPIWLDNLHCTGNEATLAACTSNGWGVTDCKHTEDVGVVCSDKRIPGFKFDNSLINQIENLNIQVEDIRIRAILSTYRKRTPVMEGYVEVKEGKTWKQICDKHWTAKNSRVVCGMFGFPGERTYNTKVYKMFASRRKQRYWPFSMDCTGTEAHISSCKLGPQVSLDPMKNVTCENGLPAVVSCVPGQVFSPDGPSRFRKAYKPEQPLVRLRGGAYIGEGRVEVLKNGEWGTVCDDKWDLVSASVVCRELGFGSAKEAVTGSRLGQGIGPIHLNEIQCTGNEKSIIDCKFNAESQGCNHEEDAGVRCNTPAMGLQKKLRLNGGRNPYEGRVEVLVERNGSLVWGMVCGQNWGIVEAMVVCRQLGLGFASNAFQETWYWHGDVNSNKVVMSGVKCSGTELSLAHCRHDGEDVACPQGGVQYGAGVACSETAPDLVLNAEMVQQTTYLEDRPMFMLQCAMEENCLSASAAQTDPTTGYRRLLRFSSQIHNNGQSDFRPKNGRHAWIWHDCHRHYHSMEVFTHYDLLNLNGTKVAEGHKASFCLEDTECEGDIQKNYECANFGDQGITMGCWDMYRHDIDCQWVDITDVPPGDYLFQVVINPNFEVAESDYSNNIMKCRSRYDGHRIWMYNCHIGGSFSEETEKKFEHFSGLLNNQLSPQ
In words: Phase 1 study, LOXL2 activity in plasma after single oral dose (PXS-5878/Simoa). Conditions: for Inhibition of LOXL2 activity: healthy humans. The class given is in vivo. The arrangement: from tissue; host or cells: human plasma (activity) and human serum (protein concentration) from clinical trial subjects. On the procedure: To confirm the therapeutic potential of the anti‐fibrotic PXS‐5338 (Figure S5) in humans, LOXL2 inhibition after oral administration was examined in a phase 1 study. […] This underscored the fast resynthesis of LOXL2 in humans, similar to that seen in rodents, with ca. 80% of enzyme activity returning within 24 h.
FIGURE 3 Inhibition of human lysyl oxidase‐like 2 (LOXL2) enzymatic activity by PXS‐5338 in clinical trials. (A) LOXL2 protein concentration in human serum is fairly constant over 24 h. Protein concentrations normalised to pre‐dose levels are plotted over time in healthy subjects treated with different doses (placebo, 100, 200 and 400 mg) of PXS‐5338. Mean ± SD with n = 6/time point. Phase 1 study with healthy male volunteers, ANZCTR ACTRN12617001444370. Legend of (A) also applies to (B) and (C). (B) Dose‐dependent inhibition of LOXL2 in plasma following a single oral dose of 100, 200 mg or 400 mg PXS‐5338. PXS‐5878/Simoa® platform used to measure the residual activity. Mean ± SD with n = 6/time point. (C) Pharmacokinetic (PK) profile of PXS‐5338 in healthy human males. […] (D) Correlation between LOXL2 protein concentration versus % inhibition. Activity data normalised to pre‐dose value.
The platform consists of an activity-based probe (ABP) for the detection of enzyme activity in conjunction with the Simoa^TM (single molecule array) bead technology to isolate the protein. This platform has enabled accurate measurement of total protein and enzymatic activity of LOXL2 from small volumes of serum, plasma and tissue.
In the immunoassay, paramagnetic capture beads are coated with a LOXL2 capture antibody (AF2639). 100 µL of pre-diluted (4-fold) sample in buffer (0.5% Casein, 0.25% Tween-20 in PBS) is combined in a cuvette with the capture beads (25 µL for protein content at 1.6 x 10^7 beads/mL; 100 µL for enzyme activity at 4 x 10^6 beads/mL). The biotinylated detector agent [either a second anti-LOXL2 antibody (AB213598) for protein content or the ABP (PXS-5878) for enzyme activity) is then added during the same incubation with intermittent shaking at room temperature (35 minutes for protein content or 54 minutes for enzyme activity).
Target molecules present in the sample are captured by the antibody coated beads and bound with the detector agent simultaneously. After incubation, beads are pelleted by magnetic separation, excess sample/buffer and reagents aspirated off and beads resuspended in wash buffer to remove unbound proteins and excess reagents.
Following protein capture and incubation with the detector, a conjugate of streptavidin-β-galactosidase (SβG; 100 µL at 300 - 350 pM) is mixed with the beads and incubated (5 minutes with intermittent shaking at room temperature). SβG binds to the biotinylated detector agent, resulting in enzyme-labelling of captured LOXL2. Following a final wash, the beads are resuspended in a resorufin-β-D-galactopyranoside (RGP) substrate solution and transferred to a Simoa^TM Disc (containing a microarray to separate beads into individual microwells). After settling into the microarray via gravity, beads are then sealed in microwells with oil. If LOXL2 is captured and labelled on the bead, β-galactosidase hydrolyses the RGP substrate in the microwell into a fluorescent product that provides the signal for measurement. A single-labelled target molecule results in sufficient fluorescent signal that can be detected and counted by the Simoa^TM optical system. The percentage of bead-containing wells in the array that have a positive signal is proportional to the amount of target or activity present in the sample.
To determine protein concentration, data can be interpolated from a calibration curve using rh LOXL2. For enzyme activity, samples are incubated for at least 30 minutes at room temperature with or without the pan-LOX inhibitor (100 μM BAPN). […]

SMILES strings stand for the structures.

For the compound `CC(C)c1c(Cc2ccc(S(C)(=O)=O)nc2)c2ncccc2n1C/C(F)=C/CN` [PXS‐5338], the “Inhibition of LOXL2 activity” value is 80% (single oral dose 100 mg, 4 h); “approximately 20%” (single oral dose 100 mg, 24 h); “complete inhibition” (single oral dose 200 mg, 4 h); 50% (single oral dose 200 mg, 24 h); “complete inhibition” (single oral dose 400 mg, 4 h); 70% (single oral dose 400 mg, 24 h). Under “phase 1 samples, n = 210, read-out: Calculated IC50 from correlation of concentration versus % inhibition”, the IC50 was 24 nM.
